Data set [1] is described as follows: Solubility of the statin in formulation carriers. To be noted: aqueous-based formulation, water.
Data set [2] can be described thus: Chemical stability / compatibility of the statin in formulations. The data set is classed as physicochemical.
Data set [3] in a line: clinical. The following applies: male, human, in vivo; for Tmax: Tmax (median).
Data set [4] in a line: Phase 1 pharmacokinetic study of sublingual statin sprays in healthy male subjects. To be noted: for AUC(0-inf) / AUC(0-t) / Cmax / Tmax: male, human, plasma; for Tmax: Tmax (median); for Tmax / Tmax (median): sublingual spray, healthy male subjects, simvastatin acid measured after simvastatin spray.
The nature of data set [5]: Safety and tolerability in phase 1 trial of sublingual statin sprays. The following applies: all mild; simvastatin AE after 40 mg; fluvastatin with both doses. The data set is classed as in vivo, human. On the procedure: The secondary objectives of this study were to: • establish the safety, tolerability, local tolerance and taste acceptance of the study medications
Safety was evaluated by adverse event (AE) monitoring, evaluation of any medically significant changes, based on physical examination findings, vital signs, and electrocardiograms (ECGs) assessments, clinical laboratory testing, local tolerance and taste acceptance.
Safety data was summarised by descriptive methods; continuous variables by summary statistics and categorical data by absolute and relative frequencies.

The conditions of data set [6]: human, in vivo; for Tmax (median): male.
The nature of data set [7]: physchem. To be noted: aqueous with cosolvent or surfactant or cyclodextrin.

Counter-ions that a name gives are not always drawn. Like-named read-outs stand apart in the source and are kept apart here.

By solubility is commonly meant the dissolved amount per volume that the medium holds. As to `CC[C@H](C)C(=O)O[C@H]1C[C@H](O)C=C2C=C[C@H](C)[C@H](CC[C@@H](O)C[C@@H](O)CC(=O)O)[C@H]21` [pravastatin sodium], the solubility in data set [1] is at least 150 mg/mL. The Reaction with ethanol result in data set [2] is “react with ethanol”.
In general, half-life refers to the time in which the quantity being followed falls by half. A lower half-life goes with fast loss. Usually AUC(0-inf) stands for the area under the concentration-time curve extrapolated to infinity. The AUC(0-t) is exposure summed from dosing to a finite time, without extrapolation to infinity. Low values mean less exposure, high ones more exposure. The term Cmax denotes the peak of the concentration-time curve. One may read the Tmax as the time at which the peak concentration occurs. Take `CC[C@H](C)C(=O)O[C@H]1C[C@H](O)C=C2C=C[C@H](C)[C@H](CC[C@@H](O)C[C@@H](O)CC(=O)O)[C@H]21` [Pravastatin, pravastatin]: the half-life in data set [3] (20 mg) is 1.58 h; in data set [3] (40 mg) it was 1.32 h. Besides, the AUC(0-inf) came out at 31.2 ng·h/mL in data set [4] (20 mg) and 80.6 ng·h/mL in data set [4] (40 mg). Further, the AUC(0-t) in data set [4] (20 mg) turned out to be 30 ng·h/mL; in data set [4] (40 mg) it was 78.8 ng·h/mL. Besides, the figures for the Cmax in data set [4] (20 mg) and in data set [4] (40 mg) were 12.3 ng/mL and 44.5 ng/mL, respectively. The Tmax was 1.3 h in data set [4] (20 mg, 20 mg) and 1.3 h in data set [4] (40 mg, 40 mg). The “Tmax (median)” value was 1.33 h in data set [4] (20 mg) and 1.29 h in data set [4] (40 mg). In addition, in data set [5], the “Treatment-emergent AEs reported” value is “none”. For the same compound, the “CL/F (mean)” value in data set [6] (20 mg) is reported as 685.48 L/h; in data set [6] (40 mg), 820.32 L/h.
As a reminder, the Vd/F is the apparent distribution volume after extravascular dosing. On to `CCC(C)(C)C(=O)O[C@H]1C[C@@H](C)C=C2C=C[C@H](C)[C@H](CC[C@@H](O)C[C@@H](O)CC(=O)O)[C@H]21` [Simvastatin Acid, simvastatin acid], for which, in data set [3] (20 mg), the AUC(0-inf) stood at 37.7 ng·h/mL, the AUC(0-t) turned out to be 21.3 ng·h/mL, the Cmax came out at 6.1 ng/mL and the Vd/F is 3960 L. In addition, in data set [3] (20 mg), the half-life was 5.73 h and the Tmax was 2.19 h. Further, in data set [3] (40 mg), the AUC(0-inf) is 47.6 ng·h/mL, the exposure AUC(0-t) worked out at 32.5 ng·h/mL, the concentration peaked (Cmax) at 9.88 ng/mL and the Vd/F stood at 4760 L. Further, in data set [3] (40 mg), the half-life was 3.65 h and the Tmax came to 3.88 h. For the same compound, in data set [6] (20 mg), the “CL/F (mean)” value worked out at 609.03 L/h. Also, in data set [6] (40 mg), the “CL/F (mean)” value amounted to 921.93 L/h.
In turn, `CC(C)n1c(/C=C/C(O)CC(O)CC(=O)O)c(-c2ccc(F)cc2)c2ccccc21` (centres unmarked) [Fluvastatin (sodium salt), fluvastatin sodium] had a solubility in data set [7] of at least 25 mg/mL.
In the case of `CCC(C)(C)C(=O)O[C@H]1C[C@@H](C)C=C2C=C[C@H](C)[C@H](CC[C@@H]3C[C@@H](O)CC(=O)O3)[C@H]21` [Simvastatin, simvastatin], the Vd/F was 1980 L in data set [3] (20 mg) and 2070 L in data set [3] (40 mg). Moreover, the half-life was 1.8 h in data set [3] (20 mg) and 1.9 h in data set [3] (40 mg). Also, the Tmax was determined as 1.88 h in data set [4] (20 mg, 20 mg) and 1.88 h in data set [4] (40 mg, 40 mg). In data set [5], the “Treatment-emergent AEs reported” value is on record as “one”. Besides, the figures for the “CL/F (mean)” value in data set [6] (20 mg) and in data set [6] (40 mg) were 744.33 L/h and 764.67 L/h, respectively.
In data set [3] (10 mg), `CC(C)n1c(/C=C/C(O)CC(O)CC(=O)O)c(-c2ccc(F)cc2)c2ccccc21` (centres unmarked) [Fluvastatin, fluvastatin] gave an AUC(0-inf) of 37.2 ng·h/mL, an AUC(0-t) of 36.3 ng·h/mL, a Cmax of 34.2 ng/mL and a half-life of 1.18 h. Besides, the Tmax in data set [3] (10 mg) is about 0.5 h. In data set [3] (25 mg), this compound gave an AUC(0-inf) of 91.7 ng·h/mL, an AUC(0-t) of 89.9 ng·h/mL, a Cmax of 88 ng/mL and a half-life of 1.4 h. Moreover, the Tmax in data set [3] (25 mg) is about 0.5 h. For the same compound, in data set [5], the “Treatment-emergent AEs reported” value was 5 related and 2 unrelated. In addition, in data set [6] (10 mg), the “CL/F (mean)” value was 376.22 L/h and the “Tmax (median)” value was 0.56 h. Moreover, in data set [6] (25 mg), the “CL/F (mean)” value worked out at 363.21 L/h and the “Tmax (median)” value is 0.57 h.

Values taken from patent US9849083B2, “Sublingual administration of statins” (LondonPharma Ltd., priority 2011, dated 2017).
